Experimental data: patent US12660819B2, “Herbicidal derivatives” (SYNGENTA CROP PROTECTION AG, priority 2020, dated 2026)

Legend:
Type in all cases: in vivo
[1] = test system: Amaranthus retoflexus (AMARE); assay: Pre-emergence Test (glasshouse, percentage damage to the plant); conditions: 1000 g/ha unless otherwise stated, five-point scale
[2] = test system: Ipomoea hederacea (IPOHE); assay: as above; conditions: 1000 g/ha unless otherwise stated, five-point scale
[3] = test system: Echinochloa crus-galli (ECHCG); assay: as above; conditions: 1000 g/ha unless otherwise stated, five-point scale
Solanum nigrum (SOLNI) [4] = assay: as above; conditions: 1000 g/ha unless otherwise stated, five-point scale
[5] = test system: Amaranthus retoflexus (AMARE); assay: Post-emergence Test (glasshouse, percentage damage to the plant); conditions: post-emergence spray, 1000 g/ha unless otherwise stated, evaluated after 13 days
How it was run: (§1)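 Scored 13 days after spraying as percentage plant damage in five bands (5=81–100%, 4=61–80%, 3=41–60%, 2=21–40%, 1=0–20%). Spray at 1000 g/ha unless stated, in acetone/water 50:50 plus 0.5% Tween 20, onto sown glasshouse pots (24/16 °C, 14 h light, 65% humidity).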

Setaria faberi (SETFA) [6] = assay: as above; conditions: post-emergence spray, 1000 g/ha unless otherwise stated, evaluated after 13 days
How it was run: (§2)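 Sown pots; spray 1000 g/ha (unless stated) in acetone/water 50:50 + 0.5% Tween 20; glasshouse 24/16 °C, 14 h light, 65% RH; watered twice daily; % damage read at 13 days, scored 1–5.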

Solanum nigrum (SOLNI) [7] = assay: as above; conditions: post-emergence spray, 1000 g/ha unless otherwise stated, evaluated after 13 days
How it was run: as §1

Lolium perenne (LOLPE) [8] = assay: as above; conditions: post-emergence spray, 1000 g/ha unless otherwise stated, evaluated after 13 days
How it was run: as §1

[9] = test system: Ipomoea hederacea (IPOHE); assay: as above; conditions: post-emergence spray, 1000 g/ha unless otherwise stated, evaluated after 13 days
How it was run: as §2

[10] = test system: Echinochloa crus-galli (ECHCG); assay: as above; conditions: post-emergence spray, 1000 g/ha unless otherwise stated, evaluated after 13 days
How it was run: as §1

Setaria faberi (SETFA) [11] = assay: Pre-emergence Test (glasshouse, percentage damage to the plant); conditions: 1000 g/ha unless otherwise stated, five-point scale
Lolium perenne (LOLPE) [12] = assay: as above; conditions: 1000 g/ha unless otherwise stated, five-point scale

Structure (SMILES) | percentage damage to the plant, AMARE [1] | percentage damage to the plant, IPOHE [2] | percentage damage to the plant, ECHCG [3] | percentage damage to the plant, SOLNI (Solanum nigrum (SOLNI) [4]) | Post-emergence Test AMARE, percentage damage to the plant (five-point scale) [5] | Post-emergence Test SETFA, percentage damage to the plant (five-point scale) (Setaria faberi (SETFA) [6]) | Post-emergence Test SOLNI, percentage damage to the plant (five-point scale) (Solanum nigrum (SOLNI) [7]) | Post-emergence Test LOLPE, percentage damage to the plant (five-point scale) (Lolium perenne (LOLPE) [8]) | Post-emergence Test IPOHE, percentage damage to the plant (five-point scale) [9] | Post-emergence Test ECHCG, percentage damage to the plant (five-point scale) [10] | percentage damage to the plant, SETFA (Setaria faberi (SETFA) [11]) | percentage damage to the plant, LOLPE (Lolium perenne (LOLPE) [12])
CCn1c(C)c(-c2cncn2C)c(=O)c(C(=O)OC)c1-c1ccc(Cl)c(Cl)c1 [Compound 39, methyl 2-(3,4-dichlorophenyl)-1-ethyl-6-methyl-5-(3-methylimidazol-4-yl)-4-oxo-pyridine-3-carboxylate] | 1 (1=0-20%) | 1 (1=0-20%) | 1 (1=0-20%) | 1 (1=0-20%) | 1 (1=0-20%) | 1 (1=0-20%) | 1 (1=0-20%) | 1 (1=0-20%) | 1 (1=0-20%) | 1 (1=0-20%) | 1 (1=0-20%) | 1 (1=0-20%)
CCn1c(C)c(-c2cncc(Cl)c2)c(=O)c(C(=O)O)c1-c1ccc(Cl)c(Cl)c1 [Compound 23, 5-(5-chloro-3-pyridyl)-2-(3,4-dichlorophenyl)-1-ethyl-6-methyl-4-oxo-pyridine-3-carboxylic acid] | 1 (1=0-20%) | 1 (1=0-20%) | 1 (1=0-20%) | 1 (1=0-20%) | 3 (3=41-60%) | 4 (4=61-80%) | 1 (1=0-20%) | 1 (1=0-20%) | 3 (3=41-60%) | 3 (3=41-60%) | 5 (5=81-100%) | 1 (1=0-20%)
CCn1c(C)c(-c2ccc(OC)cc2)c(=O)c(C(=O)O)c1-c1ccc(Cl)c(Cl)c1 [Compound 18, 2-(3,4-dichlorophenyl)-1-ethyl-5-(4-methoxyphenyl)-6-methyl-4-oxo-pyridine-3-carboxylic acid] | 1 (1=0-20%) | 1 (1=0-20%) | 2 (2=21-40%) | 2 (2=21-40%) | 5 (5=81-100%) | 5 (5=81-100%) | 5 (5=81-100%) | 2 (2=21-40%) | 5 (5=81-100%) | 4 (4=61-80%) | 4 (4=61-80%) | 1 (1=0-20%)
CCn1c(C)c(-c2ccc(F)nc2)c(=O)c(C(=O)O)c1-c1ccc(Cl)c(Cl)c1 [Compound 8, 2-(3,4-dichlorophenyl)-1-ethyl-5-(6-fluoro-3-pyridyl)-6-methyl-4-oxo-pyridine-3-carboxylic acid] | 3 (3=41-60%) | 1 (1=0-20%) | 2 (2=21-40%) | 3 (3=41-60%) | 5 (5=81-100%) | 5 (5=81-100%) | 5 (5=81-100%) | 3 (3=41-60%) | 4 (4=61-80%) | 4 (4=61-80%) | 4 (4=61-80%) | 3 (3=41-60%)
CCn1c(C)c(-c2cccnc2)c(=O)c(C(=O)O)c1-c1ccc(Cl)c(Cl)c1 [Compound 19, 2-(3,4-dichlorophenyl)-1-ethyl-6-methyl-4-oxo-5-(3-pyridyl)pyridine-3-carboxylic acid] | 1 (1=0-20%) | 1 (1=0-20%) | 1 (1=0-20%) | 1 (1=0-20%) | 4 (4=61-80%) | 4 (4=61-80%) | 5 (5=81-100%) | 3 (3=41-60%) | 4 (4=61-80%) | 5 (5=81-100%) | 1 (1=0-20%) | 1 (1=0-20%)
